Values quoted from earlier work, collected in patent US20110110985A1, “FUNCTIONALIZED NANOMATERIALS FOR CHELATION THERAPIES AND SORBENT DIALYSIS OF TOXINS” (priority 2009, published 2011).

What was measured:
[1] = given in the first 24 hours
[2] = given orally to rats
[3] = day of chelation vs one and two days prior to treatment

O=C(O)CN(CCN(CC(=O)O)CC(=O)O)CCN(CC(=O)O)CC(=O)O [Ca-DTPA, diethylenetriaminepentaacetic acid]
effectiveness relative to Zn-DTPA [1]: 10 fold

O=C(O)[C@@H](S)[C@@H](S)C(=O)O [DMSA, meso-2,3-dimercaptosuccinic acid]
change of Ca and Zn in carcass, Fe and Cu in liver, kidney, or brain [2]: did not significantly change

O=C(O)CN(CCN(CC(=O)O)CC(=O)O)CC(=O)O [EDTA, ethylenediamine-tetraacetate]
increase of urinary excretion of Ca [3]: 2 fold
increase of urinary excretion of Zn [3]: 18 fold
